Where two headings read alike, the source gives them in different places.
How the values were obtained:
Format in all cases: binding
[1] = molecular target: T1, HeLa cell extract proteins (Homo sapiens, UniProt P51659)
T1 construct: endogenous in cells; host or cells: HeLa cell extract
T1 sequence (P51659 1-736): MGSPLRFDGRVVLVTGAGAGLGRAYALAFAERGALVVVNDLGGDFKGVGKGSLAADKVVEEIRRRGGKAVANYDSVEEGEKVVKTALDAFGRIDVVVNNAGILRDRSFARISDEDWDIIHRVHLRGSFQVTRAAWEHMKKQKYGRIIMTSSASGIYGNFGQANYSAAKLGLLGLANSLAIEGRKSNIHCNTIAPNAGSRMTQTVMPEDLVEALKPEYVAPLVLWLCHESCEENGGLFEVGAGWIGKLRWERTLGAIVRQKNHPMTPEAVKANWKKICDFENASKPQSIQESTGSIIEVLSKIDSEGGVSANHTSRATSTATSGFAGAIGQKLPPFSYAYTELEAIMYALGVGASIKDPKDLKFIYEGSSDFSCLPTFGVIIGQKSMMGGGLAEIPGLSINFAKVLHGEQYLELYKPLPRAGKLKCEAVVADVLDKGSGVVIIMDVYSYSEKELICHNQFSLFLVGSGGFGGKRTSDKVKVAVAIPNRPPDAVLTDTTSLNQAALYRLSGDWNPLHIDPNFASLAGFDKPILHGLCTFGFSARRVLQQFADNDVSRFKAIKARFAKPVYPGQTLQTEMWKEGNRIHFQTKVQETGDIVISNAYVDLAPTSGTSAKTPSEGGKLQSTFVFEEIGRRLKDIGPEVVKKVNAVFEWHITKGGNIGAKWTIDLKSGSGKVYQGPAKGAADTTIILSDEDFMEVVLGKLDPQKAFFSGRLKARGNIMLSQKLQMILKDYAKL

[2] = molecular target: T2, HeLa cell extract proteins (Homo sapiens, UniProt Q99439)
T2 construct: endogenous in cells; host or cells: HeLa cell extract
T2 sequence (Q99439 1-309): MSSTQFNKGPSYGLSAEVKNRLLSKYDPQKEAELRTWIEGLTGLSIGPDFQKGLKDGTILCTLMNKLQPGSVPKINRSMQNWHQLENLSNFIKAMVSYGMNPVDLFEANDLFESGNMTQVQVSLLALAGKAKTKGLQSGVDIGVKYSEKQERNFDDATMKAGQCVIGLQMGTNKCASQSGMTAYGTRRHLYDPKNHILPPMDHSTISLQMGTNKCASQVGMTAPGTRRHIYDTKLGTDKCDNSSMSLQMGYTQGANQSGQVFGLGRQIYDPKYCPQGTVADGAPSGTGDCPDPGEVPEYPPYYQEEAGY

[3] = molecular target: T3, HeLa cell extract proteins (Homo sapiens, UniProt P48643)
T3 construct: endogenous in cells; host or cells: HeLa cell extract

[4] = molecular target: T4, HeLa cell extract proteins (Homo sapiens, UniProt Q8NBE8)
T4 construct: endogenous in cells; host or cells: HeLa cell extract
T4 sequence (Q8NBE8 1-558): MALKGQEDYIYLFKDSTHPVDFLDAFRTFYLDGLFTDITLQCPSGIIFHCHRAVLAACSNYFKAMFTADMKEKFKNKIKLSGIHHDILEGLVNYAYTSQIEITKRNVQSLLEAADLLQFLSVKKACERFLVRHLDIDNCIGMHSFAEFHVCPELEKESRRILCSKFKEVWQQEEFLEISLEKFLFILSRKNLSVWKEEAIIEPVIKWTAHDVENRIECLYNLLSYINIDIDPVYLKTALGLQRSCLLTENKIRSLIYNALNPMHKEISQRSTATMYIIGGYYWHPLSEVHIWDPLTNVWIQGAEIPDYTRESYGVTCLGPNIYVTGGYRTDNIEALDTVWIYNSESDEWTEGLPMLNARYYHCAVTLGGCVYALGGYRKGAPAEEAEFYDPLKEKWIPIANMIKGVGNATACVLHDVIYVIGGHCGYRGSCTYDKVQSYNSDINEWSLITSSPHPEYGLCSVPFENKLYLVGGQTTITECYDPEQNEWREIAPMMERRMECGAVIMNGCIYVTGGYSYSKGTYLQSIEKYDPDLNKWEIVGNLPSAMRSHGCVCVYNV

[5] = molecular target: T5, HeLa cell extract proteins (Homo sapiens, UniProt Q9NX63)
T5 construct: endogenous in cells; host or cells: HeLa cell extract
T5 sequence (Q9NX63 1-227): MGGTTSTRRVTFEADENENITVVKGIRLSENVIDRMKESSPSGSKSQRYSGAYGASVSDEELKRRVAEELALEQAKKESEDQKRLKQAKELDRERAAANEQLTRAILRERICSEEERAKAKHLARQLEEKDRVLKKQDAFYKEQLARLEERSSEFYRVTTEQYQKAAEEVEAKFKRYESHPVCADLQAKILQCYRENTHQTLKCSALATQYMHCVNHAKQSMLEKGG

[6] = molecular target: T6, HeLa cell extract proteins (Homo sapiens, UniProt Q9H000)
T6 construct: endogenous in cells; host or cells: HeLa cell extract
T6 sequence (Q9H000 1-416): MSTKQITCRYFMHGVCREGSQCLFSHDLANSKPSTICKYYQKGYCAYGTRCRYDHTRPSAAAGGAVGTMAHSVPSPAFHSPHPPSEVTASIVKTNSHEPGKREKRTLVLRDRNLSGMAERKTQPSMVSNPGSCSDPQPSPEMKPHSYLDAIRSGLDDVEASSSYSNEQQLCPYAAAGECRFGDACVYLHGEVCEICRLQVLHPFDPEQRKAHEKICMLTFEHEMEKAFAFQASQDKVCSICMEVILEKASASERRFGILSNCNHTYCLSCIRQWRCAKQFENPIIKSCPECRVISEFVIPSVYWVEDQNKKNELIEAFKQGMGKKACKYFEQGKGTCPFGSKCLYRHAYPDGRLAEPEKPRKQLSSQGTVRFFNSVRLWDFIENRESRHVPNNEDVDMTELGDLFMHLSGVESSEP

[7] = molecular target: T7, HeLa cell extract proteins (Homo sapiens, UniProt P60174)
T7 construct: endogenous in cells; host or cells: HeLa cell extract

[8] = molecular target: T8, HeLa cell extract proteins (Homo sapiens, UniProt P31040)
T8 construct: endogenous in cells; host or cells: HeLa cell extract

[9] = HeLa, protein CCT5 (T-COMPLEX PROTEIN 1 SUBUNIT EPSILON.)
[10] = HeLa, protein TPI1 (ISOFORM 1 OF TRIOSEPHOSPHATE ISOMERASE.)
[11] = HeLa, protein HSD17B4 (CDNA FLJ55431, HIGHLY SIMILAR TO PEROXISOMAL MULTIFUNCTIONAL ENZYME TYPE 2)
[12] = HeLa, protein MKRN2 (MAKORIN-2)

T8 sequence (P31040 43-664): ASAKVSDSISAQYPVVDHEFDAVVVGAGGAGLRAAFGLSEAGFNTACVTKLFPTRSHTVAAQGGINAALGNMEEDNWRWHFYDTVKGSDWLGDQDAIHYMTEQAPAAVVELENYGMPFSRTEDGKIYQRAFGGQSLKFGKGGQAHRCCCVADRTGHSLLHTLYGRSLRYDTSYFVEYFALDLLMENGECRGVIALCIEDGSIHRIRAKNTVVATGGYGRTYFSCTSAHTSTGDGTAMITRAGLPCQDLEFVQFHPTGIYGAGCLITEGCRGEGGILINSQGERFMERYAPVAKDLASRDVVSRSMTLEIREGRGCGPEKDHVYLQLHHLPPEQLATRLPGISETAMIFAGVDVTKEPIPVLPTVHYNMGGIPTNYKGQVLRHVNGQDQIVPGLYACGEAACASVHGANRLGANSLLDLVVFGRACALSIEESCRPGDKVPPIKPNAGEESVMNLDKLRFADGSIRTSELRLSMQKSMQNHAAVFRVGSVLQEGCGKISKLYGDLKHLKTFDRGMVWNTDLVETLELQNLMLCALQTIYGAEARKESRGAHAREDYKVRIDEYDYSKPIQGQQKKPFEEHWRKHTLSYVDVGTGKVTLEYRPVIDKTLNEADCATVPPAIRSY
T3 sequence (P48643 whole entry): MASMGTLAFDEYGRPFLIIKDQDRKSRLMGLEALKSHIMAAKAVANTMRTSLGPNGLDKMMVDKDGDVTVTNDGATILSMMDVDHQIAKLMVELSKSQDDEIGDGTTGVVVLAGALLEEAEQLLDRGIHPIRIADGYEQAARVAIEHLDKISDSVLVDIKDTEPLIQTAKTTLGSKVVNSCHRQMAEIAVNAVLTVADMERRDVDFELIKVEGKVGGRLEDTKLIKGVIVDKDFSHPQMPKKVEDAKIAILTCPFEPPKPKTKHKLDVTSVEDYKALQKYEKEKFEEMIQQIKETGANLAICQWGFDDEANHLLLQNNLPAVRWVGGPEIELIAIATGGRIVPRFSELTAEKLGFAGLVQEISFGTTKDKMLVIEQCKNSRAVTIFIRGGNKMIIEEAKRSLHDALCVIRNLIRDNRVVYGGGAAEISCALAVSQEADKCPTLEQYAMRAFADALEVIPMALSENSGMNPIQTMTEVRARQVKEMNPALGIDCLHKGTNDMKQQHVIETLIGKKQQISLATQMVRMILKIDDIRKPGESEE
T7 sequence (P60174 whole entry): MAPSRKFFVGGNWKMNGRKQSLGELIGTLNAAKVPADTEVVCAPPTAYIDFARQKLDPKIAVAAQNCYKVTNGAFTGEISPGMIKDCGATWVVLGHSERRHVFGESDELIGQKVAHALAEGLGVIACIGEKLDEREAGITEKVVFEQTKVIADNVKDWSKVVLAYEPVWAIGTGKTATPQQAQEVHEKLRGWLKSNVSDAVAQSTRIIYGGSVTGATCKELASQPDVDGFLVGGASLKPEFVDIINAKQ

SMILES | fold changes relative to vehicle control ([1]; protein HSD17B4, HeLa) | fold changes relative to vehicle control ([2]; HeLa, protein CNN2) | fold changes relative to vehicle control [3, 9] | fold changes relative to vehicle control ([4]; protein KLHL23, HeLa) | fold changes relative to vehicle control ([5]; captured protein CHCHD3, HeLa) | fold changes relative to vehicle control ([6]; captured protein MKRN2, HeLa) | fold changes relative to vehicle control ([8]; protein SDHA, HeLa) | fold changes relative to vehicle control [1, 11] | fold changes relative to vehicle control ([2]; HeLa, captured protein CNN2) | fold changes relative to vehicle control ([3]; HeLa, protein CCT5) | fold changes relative to vehicle control ([4]; HeLa, protein KLHL23) | fold changes relative to vehicle control ([5]; HeLa, protein CHCHD3) | fold changes relative to vehicle control [6, 12] | fold changes relative to vehicle control ([7]; HeLa, protein TPI1) | fold changes relative to vehicle control ([8]; HeLa, captured protein SDHA) | further results
Nc1nc2cccc(-c3ccccc3)c2n1Cc1ccc(Cl)c(Cl)c1 [compound 3] | 1.14 | 1.07 | 1.18 fold | 0.92 | 1.02 | 0.89 | 1.02 | – | – | – | – | – | – | – | – | fold changes relative to vehicle control ([7]; HeLa, protein TPI1 (ISOFORM 1 OF TRIOS[…].)): 0.88 fold
CCCCCCOc1ccc(Cc2cnc(N)nc2N)cc1 [compound 1] | 1.07 | 0.81 | 1.41 fold | 0.87 | 0.93 | 0.9 | 1.19 | – | – | – | – | – | – | – | – | fold changes relative to vehicle control [7, 10]: 1.44 fold
NCCCNc1ccc(C(=O)NC(CCC(=O)O)C(=O)O)cc1 (centres unmarked) [compound 7] | – | – | – | – | – | – | – | 1.07 | 1.33 | 1.03 | 0.83 | 0.99 | 0.98 | 1 | 0.92 | –
CCCCCCOc1cccc(Cc2cnc(N)nc2N)c1 [compound 2] | 1.22 | 0.95 | 1.97 fold | 0.94 | 1.08 | 0.9 | 1.2 | – | – | – | – | – | – | – | – | fold changes relative to vehicle control [7, 10]: 2.37 fold
NCCOCCOCC(=O)Nc1nc2ncc(CNc3ccc(C(=O)NC(CCC(=O)O)C(=O)O)cc3)nc2c(=O)[nH]1 (centres unmarked) [compound 6] | – | – | – | – | – | – | – | 1.02 | 0.93 | 1.29 | 0.8 | 1 | 0.92 | 1.41 | 1.06 | –
Nc1nc2[nH]cc(CCc3ccc(C(=O)N[C@@H](CCC(=O)O)C(=O)O)cc3)c2c(=O)[nH]1 [PTX, pemetrexed] | – | – | – | – | – | – | – | – | – | – | – | – | – | – | – | fold changes relative to vehicle control [1]: 1.15; fold changes relative to vehicle control [2]: 0.96; fold changes relative to vehicle control [3]: 1.13; fold changes relative to vehicle control [4]: 0.8; fold changes relative to vehicle control [5]: 0.98; fold changes relative to vehicle control [6]: 0.91; fold changes relative to vehicle control [7]: 1.22; fold changes relative to vehicle control [8]: 0.97
Nc1nc2c(c(=O)[nH]1)N(C=O)C(CNc1ccc(C(=O)N[C@@H](CCC(=O)O)C(=O)O)cc1)CN2 (some centres unmarked) [LEU, leucovorin] | – | – | – | – | – | – | – | 1.25 | 0.97 | 1.05 | 0.91 | 0.92 | 1.02 | 1.03 | 1 | –

From paper PMC6199744, “Development of Chemical Proteomics for the Folateome and Analysis of the Kinetoplastid Folateome” (ACS Infectious Diseases, 2018)
